Results: article PMC6268880, “IMB2026791, a Xanthone, Stimulates Cholesterol Efflux by Increasing the Binding of Apolipoprotein A-I to ATP-Binding Cassette Transporter A1” (Molecules, 2012)

Biological target: T1, ATP-binding cassette transporter A1 (ABCA1) (Homo sapiens, UniProt O95477)
T1 construct: full-length ABCA1 (pIRES2-EGFP-ABCA1) in CHO cells; with apoA-I
Assay: cell-based ELISA-like apoA-I binding to ABCA1-transfected CHO cells, with vector-only control; western blot

T1 sequence (O95477 whole entry): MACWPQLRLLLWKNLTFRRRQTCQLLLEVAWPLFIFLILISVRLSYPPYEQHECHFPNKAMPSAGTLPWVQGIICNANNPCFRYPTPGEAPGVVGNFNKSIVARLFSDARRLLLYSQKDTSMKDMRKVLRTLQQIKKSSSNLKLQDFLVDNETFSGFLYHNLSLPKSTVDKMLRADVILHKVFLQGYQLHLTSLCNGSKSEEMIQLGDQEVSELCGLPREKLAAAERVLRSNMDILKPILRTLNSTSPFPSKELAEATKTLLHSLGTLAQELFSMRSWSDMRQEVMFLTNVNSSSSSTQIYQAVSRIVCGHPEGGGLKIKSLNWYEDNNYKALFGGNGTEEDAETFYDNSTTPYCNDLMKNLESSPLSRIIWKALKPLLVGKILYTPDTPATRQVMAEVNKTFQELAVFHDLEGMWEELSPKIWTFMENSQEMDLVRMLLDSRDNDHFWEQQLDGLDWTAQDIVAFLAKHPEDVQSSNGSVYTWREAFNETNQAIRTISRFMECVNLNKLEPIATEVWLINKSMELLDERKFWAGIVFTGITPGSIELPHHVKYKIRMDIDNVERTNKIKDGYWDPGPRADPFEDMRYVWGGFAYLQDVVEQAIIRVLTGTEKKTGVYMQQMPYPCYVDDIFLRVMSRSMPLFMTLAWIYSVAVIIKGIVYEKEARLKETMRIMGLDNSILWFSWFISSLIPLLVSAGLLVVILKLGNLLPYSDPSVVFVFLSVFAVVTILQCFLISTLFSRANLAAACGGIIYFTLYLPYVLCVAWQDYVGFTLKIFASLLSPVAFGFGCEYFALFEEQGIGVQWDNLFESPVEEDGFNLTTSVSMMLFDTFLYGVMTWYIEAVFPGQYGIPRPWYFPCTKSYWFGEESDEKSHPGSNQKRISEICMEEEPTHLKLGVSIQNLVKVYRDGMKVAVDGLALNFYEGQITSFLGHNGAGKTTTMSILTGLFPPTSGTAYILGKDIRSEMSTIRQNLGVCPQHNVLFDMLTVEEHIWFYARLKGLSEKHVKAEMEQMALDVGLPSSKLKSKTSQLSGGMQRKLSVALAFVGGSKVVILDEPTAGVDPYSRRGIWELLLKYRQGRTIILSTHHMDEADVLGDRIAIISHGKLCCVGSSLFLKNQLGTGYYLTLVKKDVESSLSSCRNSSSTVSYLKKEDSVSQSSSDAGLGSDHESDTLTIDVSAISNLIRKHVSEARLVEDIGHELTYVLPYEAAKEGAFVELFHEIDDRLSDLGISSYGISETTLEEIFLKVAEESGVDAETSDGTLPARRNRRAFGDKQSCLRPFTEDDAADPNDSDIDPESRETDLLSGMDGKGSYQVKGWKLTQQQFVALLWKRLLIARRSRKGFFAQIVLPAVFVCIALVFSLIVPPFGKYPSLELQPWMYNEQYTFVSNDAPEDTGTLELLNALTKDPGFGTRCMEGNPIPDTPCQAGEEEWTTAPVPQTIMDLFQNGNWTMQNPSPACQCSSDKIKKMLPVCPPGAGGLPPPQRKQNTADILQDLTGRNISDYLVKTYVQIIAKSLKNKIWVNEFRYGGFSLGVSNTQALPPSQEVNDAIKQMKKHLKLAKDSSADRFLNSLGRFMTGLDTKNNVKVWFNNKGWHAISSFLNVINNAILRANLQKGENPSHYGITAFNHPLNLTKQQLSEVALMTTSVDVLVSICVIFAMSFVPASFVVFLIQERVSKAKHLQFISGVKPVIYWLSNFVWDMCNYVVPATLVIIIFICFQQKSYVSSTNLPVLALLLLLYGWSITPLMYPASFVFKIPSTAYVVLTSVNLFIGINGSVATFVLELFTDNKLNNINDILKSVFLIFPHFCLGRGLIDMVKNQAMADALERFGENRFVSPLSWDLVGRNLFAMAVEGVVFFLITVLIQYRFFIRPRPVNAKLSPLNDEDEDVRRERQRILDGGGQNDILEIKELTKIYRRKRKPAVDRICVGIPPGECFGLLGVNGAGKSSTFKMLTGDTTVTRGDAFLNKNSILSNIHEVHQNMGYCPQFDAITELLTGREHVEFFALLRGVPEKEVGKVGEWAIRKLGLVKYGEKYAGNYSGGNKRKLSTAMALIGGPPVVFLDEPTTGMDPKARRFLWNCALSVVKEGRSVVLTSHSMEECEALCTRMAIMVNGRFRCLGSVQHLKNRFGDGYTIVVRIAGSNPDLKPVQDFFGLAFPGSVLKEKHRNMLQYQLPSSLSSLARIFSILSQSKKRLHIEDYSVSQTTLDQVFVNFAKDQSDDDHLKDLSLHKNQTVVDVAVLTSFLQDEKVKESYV
T1 sequence (P02647 25-267 partner): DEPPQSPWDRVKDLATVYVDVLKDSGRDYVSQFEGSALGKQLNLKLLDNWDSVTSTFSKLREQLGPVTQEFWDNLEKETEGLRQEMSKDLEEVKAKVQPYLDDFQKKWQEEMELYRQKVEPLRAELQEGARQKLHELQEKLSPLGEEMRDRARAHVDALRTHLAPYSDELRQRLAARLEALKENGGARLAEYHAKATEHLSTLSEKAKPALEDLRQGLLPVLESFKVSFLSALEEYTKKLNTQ

COc1ccc(Cl)cc1C(=O)NCCc1ccc(S(=O)(=O)NC(=O)NC2CCCCC2)cc1 [glibenclamide] was tested, and the “cell-based ELISA-like apoA-I binding to ABCA1-transfected CHO cells, with vector” value was “an inhibition by glibenclamide was observed on transfected cells expressing ABCA1”.
